Results: ChEMBL document CHEMBL3098019, “Structure-based screening for the discovery of new carbonic anhydrase VII inhibitors” (Eur J Med Chem, 2014)

Tests used:
[1] = target: Carbonic anhydrase 9 (Homo sapiens, UniProt Q16790)
Description: Inhibition of human catalytic domain of carbonic anhydrase 9 preincubated for 15 mins by stopped flow CO2 hydration assay

[2] = target: Carbonic anhydrase 2 (Homo sapiens, UniProt P00918); assay: Inhibition of human recombinant carbonic anhydrase 2 preincubated for 15 mins by stopped flow CO2 hydration assay
[3] = target: Carbonic anhydrase 14 (Homo sapiens, UniProt Q9ULX7); assay: Inhibition of human recombinant carbonic anhydrase 14 preincubated for 15 mins by stopped flow CO2 hydration assay
[4] = target: Carbonic anhydrase 1 (Homo sapiens, UniProt P00915); assay: Inhibition of human recombinant carbonic anhydrase 1 preincubated for 15 mins by stopped flow CO2 hydration assay
Carbonic anhydrase 1, sequence (P00915 whole entry): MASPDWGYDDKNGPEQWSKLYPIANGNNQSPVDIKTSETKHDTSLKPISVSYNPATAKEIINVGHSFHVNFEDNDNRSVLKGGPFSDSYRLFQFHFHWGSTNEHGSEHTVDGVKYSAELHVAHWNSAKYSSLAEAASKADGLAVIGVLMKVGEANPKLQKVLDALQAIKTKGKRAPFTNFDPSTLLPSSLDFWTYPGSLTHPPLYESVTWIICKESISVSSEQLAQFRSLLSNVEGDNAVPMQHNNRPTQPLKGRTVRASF

Carbonic anhydrase 14, sequence (Q9ULX7 whole entry): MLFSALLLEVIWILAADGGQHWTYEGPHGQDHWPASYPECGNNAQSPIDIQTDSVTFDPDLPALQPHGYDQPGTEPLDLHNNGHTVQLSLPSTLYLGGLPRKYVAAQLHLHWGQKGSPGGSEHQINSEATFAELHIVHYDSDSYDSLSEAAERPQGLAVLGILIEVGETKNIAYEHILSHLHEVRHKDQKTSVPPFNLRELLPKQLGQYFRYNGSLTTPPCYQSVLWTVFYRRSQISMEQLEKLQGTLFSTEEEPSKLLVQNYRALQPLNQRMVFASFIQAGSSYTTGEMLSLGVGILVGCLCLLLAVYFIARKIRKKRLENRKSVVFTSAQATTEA

Row | Structure (SMILES) | Ki [1] | Ki [2] | Ki [3] | Ki [4]
1 | NS(=O)(=O)Cc1ccc(NC(=O)C2CC=CCC2)cc1 (configuration not stated) | 53.2 nM | 73.2 nM | 7.6 nM | 8.9 nM
2 | NS(=O)(=O)Cc1ccc(NS(=O)(=O)c2ccc(Br)cc2Cl)cc1 |  | 6.3 nM | 19.4 nM | 8.6 nM
